Results on ten molecules are retold here after patent US20150005281A1, “PYRIMIDINE-2,4-DIAMINE DERIVATIVES AS KINASE INHIBITORS” (Cellzome Limited, priority 2011, published 2015).

What is called IC50 is the point on the concentration scale where inhibition reaches its midpoint.

What all share (type): binding
Assay [1] deals with T1, TYK2 (Homo sapiens, UniProt P29597).
T1 construct: endogenous in cells; host or cells: Molt4 (ATCC CRL-1582) and Ramos (ATCC CRL-1596) cells; mixed lysate 1:2
As to the kind of experiment: Kinobeads assay with immunodetection, TYK2. As to conditions: for IC50: Kinobeads assay, mixed Molt4/Ramos lysate, read-out: Inhibition values (IC50) Tyk2. The procedure:
(§1) Determination of the Effect of the Compounds According to the Invention on Janus Kinases (JAK Family) in Kinobeads™ Assays with Immunodetection of Kinases
(§2) The compounds of the present invention as described in the previous examples were tested in a Kinobeads™ assay as described for ZAP-70 (WO-A 2007/137867). Briefly, test compounds (at various concentrations) and the affinity matrix with the immobilized aminopyrido-pyrimidine ligand 24 were added to cell lysate aliquots and allowed to bind to the proteins in the lysate sample. After the incubation time the beads with captured proteins were separated from the lysate. Bound proteins were then eluted and the presence of JAK1, JAK2, JAK3 and TYK2 was detected and quantified using specific antibodies in a dot blot procedure and the Odyssey infrared detection system. Dose response curves for individual kinases were generated and IC50 values calculated. Kinobeads™ assays for ZAP-70 (WO-A 2007/137867) and for kinase selectivity profiling (WO-A 2006/134056) have been previously described.
(§3) The affinity matrix was washed two times with 15 mL of 1×DP buffer containing 0.2% NP40 (IGEPAL® CA-630, Sigma, #13021) and then resuspended in 1×DP buffer containing 0.2% NP40 (3% beads slurry).
(§4) 5×DP buffer: 250 mM Tris-HCl pH 7.4, 25% Glycerol, 7.5 mM MgCl2, 750 mM NaCl, 5 mM Na3VO4; filter the 5×DP buffer through a 0.22 μm filter and store in aliquots at −80° C. The 5×DP buffer is diluted with H2O to 1×DP buffer containing 1 mM DTT and 25 mM NaF.
(§5) Stock solutions of test compounds were prepared in DMSO. In a 96 well plate 30 μL solution of diluted test compounds at 5 mM in DMSO were prepared. Starting with this solution a 1:3 dilution series (9 steps) was prepared. For control experiments (no test compound) a buffer containing 2% DMSO was used.
(§6) Molt4 cells (ATCC catalogue number CRL-1582) and Ramos cells (ATCC catalogue number CRL-1596) were grown in 1 L Spinner flasks (Integra Biosciences, #182101) in suspension in RPMI 1640 medium (Invitrogen, #21875-034) supplemented with 10% Fetal Bovine Serum (Invitrogen) at a density between 0.15×10^6 and 1.2×10^6 cells/mL. Cells were harvested by centrifugation, washed once with 1×PBS buffer (Invitrogen, #14190-094) and cell pellets were frozen in liquid nitrogen and subsequently stored at −80° C. Cells were homogenized in a Potter S homogenizer in lysis buffer: 50 mM Tris-HCl, 0.8% NP40, 5% glycerol, 150 mM NaCl, 1.5 mM MgCl2, 25 mM NaF, 1 mM sodium vanadate, 1 mM DTT, pH 7.5. One complete EDTA-free tablet (protease inhibitor cocktail, Roche Diagnostics, 1873580) per 25 ml, buffer was added. The material was dounced 10 times using a mechanized POTTER S, transferred to 50 mL falcon tubes, incubated for 30 minutes on ice and spun down for 10 minutes at 20,000 g at 4° C. (10,000 rpm in Sorvall SLA600, precooled). The supernatant was transferred to an ultracentrifuge (UZ)-polycarbonate tube (Beckmann, 355654) and spun for 1 hour at 100.000 g at 4° C. (33.500 rpm in Ti50.2, precooled). The supernatant was transferred again to a fresh 50 mL falcon tube, the protein concentration was determined by a Bradford assay (BioRad) and samples containing 50 mg of protein per aliquot were prepared. The samples were immediately used for experiments or frozen in liquid nitrogen and stored frozen at −80° C.
(§7) Cell lysate (approximately 50 mg protein per plate) was thawed in a water bath at room temperature and then stored on ice. To the thawed cell lysate 1×DP 0.8% NP40 buffer containing protease inhibitors (1 tablet for 25 mL buffer; EDTA-free protease inhibitor cocktail; Roche Diagnostics 1873580) was added in order to reach a final protein concentration of 10 mg/mL total protein. The diluted cell lysate was stored on ice. Mixed Molt4/Ramos lysate was prepared by combining one volume of Molt4 lysate and two volumes of Ramos lysate (ratio 1:2). […]

The target of assay [2] is T2, JAK1 (Homo sapiens, UniProt P23458).
T2 construct: endogenous in cells; host or cells: Molt4 (ATCC CRL-1582) and Ramos (ATCC CRL-1596) cells; mixed lysate 1:2
T2 sequence (P23458 whole entry): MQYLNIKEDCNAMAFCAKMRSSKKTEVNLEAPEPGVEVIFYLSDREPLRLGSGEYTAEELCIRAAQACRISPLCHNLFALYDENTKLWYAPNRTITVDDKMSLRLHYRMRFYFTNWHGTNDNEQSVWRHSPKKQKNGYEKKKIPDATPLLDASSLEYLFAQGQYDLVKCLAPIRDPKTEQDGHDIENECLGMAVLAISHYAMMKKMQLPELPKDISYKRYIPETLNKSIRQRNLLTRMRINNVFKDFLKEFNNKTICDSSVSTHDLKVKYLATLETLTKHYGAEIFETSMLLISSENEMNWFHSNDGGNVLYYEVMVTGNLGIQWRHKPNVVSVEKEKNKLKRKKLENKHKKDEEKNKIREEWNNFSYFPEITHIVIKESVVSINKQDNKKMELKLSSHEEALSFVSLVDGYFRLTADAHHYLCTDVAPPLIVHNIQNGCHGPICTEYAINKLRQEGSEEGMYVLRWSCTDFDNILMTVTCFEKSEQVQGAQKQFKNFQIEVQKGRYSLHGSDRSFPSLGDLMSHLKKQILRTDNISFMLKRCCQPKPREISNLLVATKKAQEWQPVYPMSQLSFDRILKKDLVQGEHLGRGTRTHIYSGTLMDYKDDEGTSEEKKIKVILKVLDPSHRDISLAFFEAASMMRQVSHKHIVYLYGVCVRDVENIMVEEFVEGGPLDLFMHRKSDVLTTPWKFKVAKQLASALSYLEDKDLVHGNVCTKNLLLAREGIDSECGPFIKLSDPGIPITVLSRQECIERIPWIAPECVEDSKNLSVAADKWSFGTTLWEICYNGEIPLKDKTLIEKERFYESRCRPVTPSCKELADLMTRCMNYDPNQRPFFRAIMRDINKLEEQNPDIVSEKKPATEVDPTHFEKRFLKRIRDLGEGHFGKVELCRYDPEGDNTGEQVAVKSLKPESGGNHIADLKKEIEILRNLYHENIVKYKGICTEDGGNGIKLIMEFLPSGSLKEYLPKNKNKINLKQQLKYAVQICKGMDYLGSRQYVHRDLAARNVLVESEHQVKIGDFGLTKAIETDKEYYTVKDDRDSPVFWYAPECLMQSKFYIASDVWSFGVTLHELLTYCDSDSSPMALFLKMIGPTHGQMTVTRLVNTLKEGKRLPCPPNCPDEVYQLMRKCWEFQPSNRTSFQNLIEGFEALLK
As to the kind of experiment: Kinobeads assay with immunodetection, JAK1. To be noted: for IC50: Kinobeads assay, mixed Molt4/Ramos lysate, read-out: Inhibition values (IC50) JAK1. The procedure:
as §1, §2, §3, §4, §5, §6, §7

Assay [3] has as its target T3, JAK3 (Homo sapiens, UniProt P52333).
T3 construct: endogenous in cells; host or cells: Molt4 (ATCC CRL-1582) and Ramos (ATCC CRL-1596) cells; mixed lysate 1:2
T3 sequence (P52333 1-1124): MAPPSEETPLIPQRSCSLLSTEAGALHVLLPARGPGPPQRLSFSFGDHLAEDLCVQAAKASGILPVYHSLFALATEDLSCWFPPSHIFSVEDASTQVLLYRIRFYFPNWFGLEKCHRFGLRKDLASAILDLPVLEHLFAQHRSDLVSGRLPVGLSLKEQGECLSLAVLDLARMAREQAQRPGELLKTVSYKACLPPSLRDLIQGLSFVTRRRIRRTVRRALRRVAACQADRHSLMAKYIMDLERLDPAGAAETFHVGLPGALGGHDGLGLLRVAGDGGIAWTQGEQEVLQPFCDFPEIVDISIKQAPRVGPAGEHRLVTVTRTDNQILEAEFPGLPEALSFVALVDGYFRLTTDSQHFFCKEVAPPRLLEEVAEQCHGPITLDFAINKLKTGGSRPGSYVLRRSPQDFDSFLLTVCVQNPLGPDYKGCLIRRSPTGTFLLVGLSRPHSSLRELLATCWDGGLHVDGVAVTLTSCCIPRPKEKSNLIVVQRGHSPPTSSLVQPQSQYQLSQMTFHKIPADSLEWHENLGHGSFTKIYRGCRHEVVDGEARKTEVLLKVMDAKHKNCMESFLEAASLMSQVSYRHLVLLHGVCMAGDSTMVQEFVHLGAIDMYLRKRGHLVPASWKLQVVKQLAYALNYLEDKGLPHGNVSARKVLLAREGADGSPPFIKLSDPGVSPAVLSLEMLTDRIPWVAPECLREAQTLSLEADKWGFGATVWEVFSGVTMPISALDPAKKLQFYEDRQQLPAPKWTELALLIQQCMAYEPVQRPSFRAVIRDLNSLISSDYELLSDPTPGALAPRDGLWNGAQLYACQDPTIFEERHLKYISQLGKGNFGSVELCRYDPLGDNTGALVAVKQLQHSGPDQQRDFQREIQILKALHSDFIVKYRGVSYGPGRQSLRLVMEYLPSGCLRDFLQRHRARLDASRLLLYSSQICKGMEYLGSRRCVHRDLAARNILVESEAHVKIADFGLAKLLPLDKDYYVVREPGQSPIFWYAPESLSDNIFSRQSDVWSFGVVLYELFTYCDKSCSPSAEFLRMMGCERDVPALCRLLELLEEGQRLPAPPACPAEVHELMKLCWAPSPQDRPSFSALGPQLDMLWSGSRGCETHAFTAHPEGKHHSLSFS
As to the kind of experiment: Kinobeads assay with immunodetection, JAK3. As to conditions: for IC50: Kinobeads assay, mixed Molt4/Ramos lysate, read-out: Inhibition values (IC50) JAK3. The procedure: as §1, §2, §3, §4, §5, §6, §7

The target of assay [4] is T4, JAK2 (Homo sapiens, UniProt O60674).
T4 construct: endogenous in cells; host or cells: Molt4 (ATCC CRL-1582) and Ramos (ATCC CRL-1596) cells; mixed lysate 1:2
T4 sequence (O60674 whole entry): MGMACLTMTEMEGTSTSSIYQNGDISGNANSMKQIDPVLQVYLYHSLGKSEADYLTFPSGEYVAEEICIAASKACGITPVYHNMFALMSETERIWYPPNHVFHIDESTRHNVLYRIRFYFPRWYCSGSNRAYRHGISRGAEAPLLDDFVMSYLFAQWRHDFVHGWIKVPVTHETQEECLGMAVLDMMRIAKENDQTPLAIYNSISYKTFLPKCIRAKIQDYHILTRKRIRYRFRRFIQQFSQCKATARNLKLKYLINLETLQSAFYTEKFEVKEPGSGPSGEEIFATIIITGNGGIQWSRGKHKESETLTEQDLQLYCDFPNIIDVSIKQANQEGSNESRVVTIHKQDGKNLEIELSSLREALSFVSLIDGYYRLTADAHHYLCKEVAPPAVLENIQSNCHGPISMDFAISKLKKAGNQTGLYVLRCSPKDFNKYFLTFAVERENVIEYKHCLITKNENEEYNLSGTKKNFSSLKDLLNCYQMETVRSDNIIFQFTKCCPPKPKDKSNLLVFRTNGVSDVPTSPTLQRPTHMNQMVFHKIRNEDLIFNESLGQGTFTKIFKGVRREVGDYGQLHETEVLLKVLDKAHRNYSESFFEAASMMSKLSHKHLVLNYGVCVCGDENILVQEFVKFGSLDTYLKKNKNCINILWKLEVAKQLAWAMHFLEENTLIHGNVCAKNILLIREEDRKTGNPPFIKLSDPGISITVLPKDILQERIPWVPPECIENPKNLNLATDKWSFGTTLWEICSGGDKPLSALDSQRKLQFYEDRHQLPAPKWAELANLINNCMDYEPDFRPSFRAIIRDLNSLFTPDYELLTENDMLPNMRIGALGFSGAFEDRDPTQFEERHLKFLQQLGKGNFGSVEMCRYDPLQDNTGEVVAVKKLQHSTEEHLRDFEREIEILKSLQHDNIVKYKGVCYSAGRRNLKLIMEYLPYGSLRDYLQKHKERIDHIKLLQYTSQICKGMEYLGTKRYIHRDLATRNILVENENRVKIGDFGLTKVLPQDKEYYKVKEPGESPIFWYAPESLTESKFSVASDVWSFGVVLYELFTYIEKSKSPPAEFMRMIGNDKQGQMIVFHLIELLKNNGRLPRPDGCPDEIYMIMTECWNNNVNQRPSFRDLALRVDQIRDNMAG
As to the kind of experiment: Kinobeads assay with immunodetection, JAK2. As to conditions: mixed Molt4/Ramos lysate, read-out: Inhibition values (IC50) JAK2. On the procedure: as §1, §2, §3, §4, §5, §6, §7

The structures appear in SMILES notation.

T1 sequence (P29597 whole entry): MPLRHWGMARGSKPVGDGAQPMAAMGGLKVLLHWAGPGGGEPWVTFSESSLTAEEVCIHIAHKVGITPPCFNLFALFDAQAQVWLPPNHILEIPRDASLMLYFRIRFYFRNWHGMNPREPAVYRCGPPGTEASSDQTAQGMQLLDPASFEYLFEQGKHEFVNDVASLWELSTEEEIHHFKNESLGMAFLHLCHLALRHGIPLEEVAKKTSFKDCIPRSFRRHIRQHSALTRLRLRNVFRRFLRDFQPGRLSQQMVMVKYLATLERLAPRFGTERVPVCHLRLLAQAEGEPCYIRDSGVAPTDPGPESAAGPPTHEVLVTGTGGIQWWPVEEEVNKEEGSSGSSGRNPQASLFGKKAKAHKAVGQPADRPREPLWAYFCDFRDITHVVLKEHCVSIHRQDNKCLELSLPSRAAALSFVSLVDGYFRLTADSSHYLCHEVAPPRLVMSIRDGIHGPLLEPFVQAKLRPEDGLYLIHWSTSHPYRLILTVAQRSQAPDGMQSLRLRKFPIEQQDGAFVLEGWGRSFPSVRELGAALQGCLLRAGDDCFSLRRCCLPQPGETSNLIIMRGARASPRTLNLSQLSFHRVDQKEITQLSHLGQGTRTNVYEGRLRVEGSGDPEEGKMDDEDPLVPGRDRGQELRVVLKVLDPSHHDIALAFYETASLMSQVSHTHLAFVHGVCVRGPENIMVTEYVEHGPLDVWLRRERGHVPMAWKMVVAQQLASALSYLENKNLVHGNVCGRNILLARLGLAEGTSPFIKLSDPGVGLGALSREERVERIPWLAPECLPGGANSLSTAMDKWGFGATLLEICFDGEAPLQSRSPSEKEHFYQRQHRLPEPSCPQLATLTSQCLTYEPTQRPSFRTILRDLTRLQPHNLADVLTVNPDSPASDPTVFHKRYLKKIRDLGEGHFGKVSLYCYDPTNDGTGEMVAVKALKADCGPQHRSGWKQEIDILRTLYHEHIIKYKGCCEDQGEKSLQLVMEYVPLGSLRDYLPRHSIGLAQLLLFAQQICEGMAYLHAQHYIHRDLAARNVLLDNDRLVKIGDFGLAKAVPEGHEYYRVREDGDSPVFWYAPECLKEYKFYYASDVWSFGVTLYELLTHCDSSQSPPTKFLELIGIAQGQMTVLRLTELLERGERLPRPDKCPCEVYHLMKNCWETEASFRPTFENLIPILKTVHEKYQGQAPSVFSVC

Regarding `CC(=O)N1CCC[C@H]1CNc1nc(Nc2cnn(CCO)c2)ncc1Cl` [Example 9, (S)-1-(2-(((5-chloro-2-((1-(2-hydroxyethyl)-1H-pyrazol-4-yl)amino)pyrimidin-4-yl)amino)methyl)pyrrolidin-1-yl)ethanone], the IC50 lay in the range of 100 to 1000 nM in assay [1], 100 to 1000 nM in assay [2], 100 to 1000 nM in assay [3] and 1000 to 10000 nM in assay [4]. Also, in assay [2], the “Selectivity ratio over JAK2, JAK1” value is reported as “JAK1 = 25”.

As to `Cc1cnc(Nc2cnn(CC(F)F)c2)nc1NC[C@H]1CCCN1CCC#N` [Example 117, (R)-3-(2-(((2-((1-(2,2-difluoroethyl)-1H-pyrazol-4-yl)amino)-5-methylpyrimidin-4-yl)amino)methyl)pyrrolidin-1-yl)propanenitrile], the IC50 is under 100 nM in assay [1], under 100 nM in assay [2], under 100 nM in assay [3] and 1000 to 10000 nM in assay [4]. Further, the “Selectivity ratio over JAK2, Tyk2” value in assay [1] is given as “Tyk2 = 140”.

For `Cn1cc(Nc2ncc(Cl)c(NC[C@@H]3CCCN3CCCS(C)(=O)=O)n2)cn1` [Example 119, (S)-5-chloro-N^2-(1-methyl-1H-pyrazol-4-yl)-N^4-((1-(3-(methylsulfonyl)propyl)pyrrolidin-2-yl)methyl)pyrimidine-2,4-diamine], the IC50 in assay [1] is 100 to 1000 nM; in assay [2], under 100 nM; in assay [3] it was 1000 to 10000 nM; in assay [4] it was 1000 to 10000 nM. Further, the “Selectivity ratio over JAK2, JAK1” value in assay [2] is on record as “JAK1 = 68”.

Take `Cn1cc(Nc2ncc(F)c(NC[C@H]3CCCN3C(=O)CCC#N)n2)cn1` [Example 114, (R)-4-(2-(((5-fluoro-2-((1-methyl-1H-pyrazol-4-yl)amino)pyrimidin-4-yl)amino)methyl)pyrrolidin-1-yl)-4-oxobutanenitrile]: the IC50 was under 100 nM in assay [1], under 100 nM in assay [2], 100 to 1000 nM in assay [3] and 1000 to 10000 nM in assay [4]. For the same molecule, the “Selectivity ratio over JAK2, Tyk2” value in assay [1] was “Tyk2 = 103”.

Regarding `Cn1cc(Nc2ncc(Cl)c(NC[C@@H]3C[C@H](F)CN3C(=O)CCC#N)n2)cn1` [Example 110, 4-((2S,4S)-2-(((5-chloro-2-((1-methyl-1H-pyrazol-4-yl)amino)pyrimidin-4-yl)amino)methyl)-4-fluoropyrrolidin-1-yl)-4-oxobutanenitrile], the IC50 in assay [1] was 100 to 1000 nM; in assay [2], under 100 nM; in assay [3], under 100 nM; in assay [4] it was 1000 to 10000 nM. The “Selectivity ratio over JAK2, JAK1” value in assay [2] was “JAK1 = 88”.

For `Cn1cc(Nc2ncc(Cl)c(NC[C@@H]3C[C@H](F)CN3CCS(C)(=O)=O)n2)cn1` [Example 91, 5-chloro-N^4-(((2S,4S)-4-fluoro-1-(2-(methylsulfonyl)ethyl)pyrrolidin-2-yl)methyl)-N^2-(1-methyl-1H-pyrazol-4-yl)pyrimidine-2,4-diamine], the IC50 in assay [1] was under 100 nM; in assay [2], under 100 nM; in assay [3] it was under 100 nM; in assay [4], 100 to 1000 nM. For the same molecule, the “Selectivity ratio over JAK2, JAK1” value in assay [2] is reported as “JAK1 = 27”.

As for `Cn1cc(Nc2ncc(Cl)c(NC[C@H]3CCCN3CCC#N)n2)cn1` [Example 49, (R)-3-(2-((5-chloro-2-(1-methyl-1H-pyrazol-4-ylamino)pyrimidin-4-ylamino)methyl)pyrrolidin-1-yl)propanenitrile], the IC50 was under 100 nM in assay [1], under 100 nM in assay [2], under 100 nM in assay [3] and 100 to 1000 nM in assay [4]. For the same molecule, the “Selectivity ratio over JAK2, Tyk2” value in assay [1] is reported as “Tyk2 = 42”.

For `Cn1cc(Nc2ncc(Cl)c(NCC3CCCCC3)n2)cn1` [Example 47, 5-chloro-N^4-(cyclohexylmethyl)-N^2-(1-methyl-1H-pyrazol-4-yl)pyrimidine-2,4-diamine], the IC50 was 100 to 1000 nM in assay [1], 100 to 1000 nM in assay [2], 100 to 1000 nM in assay [3] and 1000 to 10000 nM in assay [4]. In addition, the “Selectivity ratio over JAK2, JAK3” value in assay [3] is reported as “JAK3 = 5”.

For the molecule `C=CS(=O)(=O)N1CC[C@H](CNc2nc(Nc3cnn(C)c3)ncc2Cl)C1` [Example 25, (R)-5-chloro-N^2-(1-methyl-1H-pyrazol-4-yl)-N^4-((1-(vinylsulfonyl)pyrrolidin-3-yl)methyl)pyrimidine-2,4-diamine], the IC50 is 100 to 1000 nM in assay [1], 100 to 1000 nM in assay [2], under 100 nM in assay [3] and over 10000 nM in assay [4]. In addition, in assay [3], the “Selectivity ratio over JAK2, JAK3” value was “JAK3 = 556”.

Regarding `Cn1cc(Nc2ncc(Cl)c(NC[C@H]3CCCCN3S(C)(=O)=O)n2)cn1` [Example 43, (R)-5-chloro-N^2-(1-methyl-1H-pyrazol-4-yl)-N^4-((1-(methylsulfonyl)piperidin-2-yl)methyl)pyrimidine-2,4-diamine], the IC50 in assay [1] was under 100 nM; in assay [2], 100 to 1000 nM; in assay [3], under 100 nM; in assay [4], 100 to 1000 nM. Besides, the “Selectivity ratio over JAK2, JAK3” value in assay [3] is “Jak3 = 18”.
